# Assay results reported in patent US6521568B1, “Plant disease controlling compositions and plant disease controlling method” (Sumitomo Chemical Company, Limited, priority 1999, dated 2003).
# Tested on: fungi of gray mold of cucumber
# Assay: Controlling effect on gray mold of cucumber, foliar spray on potted cucumber plants
# Assay type: in vivo, Botrytis cinerea
# Conditions: single compound, 5.0 ppm, 10° C. humid for 6 days after inoculation
# Description: Plastic pots were filled with sandy loam and sown with cucumber (Sagamihanjiro), followed by growing in a greenhouse for 12 days. A wettable powder of the Compound (I-j) and a wettable powder of procymidone were separately diluted with water, and these dilutions were tank-mixed, then the tank-mixed dilution of the prescribed concentrations of the Compound (I-j) and procymidone was prepared. Said tank-mixed dilution was sprayed to foliage of said cucumber so as to adhere the dilution sufficiently to the surfaces of its leave. After air-drying, a PDA medium including hyphae of the fungi of gray mold of cucumber was placed on the leave surfaces of said cucumber. After inoculation, the plastic pots were placed under a humid environment of 10° C. for 6 days, and then the controlling effect was examined. […]
# At the examination, the following evaluation indices was used. The attack rates were calculated with Scheme 1, and then on the basis of the attack rates, the controlling values were calculated with Scheme 2. […]
# The controlling effect, which is expected when treatment is carried out by mixing the given two species of active ingredient compounds, is generally calculated according to the following Colby equation described at Scheme 3. […]
structure (smiles),measurement,value
"CC12CC1(C)C(=O)N(c1cc(Cl)cc(Cl)c1)C2=O (stereo not shown) [(II), N-(3,5-dichlorophenyl)-1,2-dimethylcyclopropane-1,2-dicarboximide]",Actual controlling value,0%
